The test system of the assay is FRT cells. Nature of the assay: Transepithelial conductance (Gt) in Air-Liquid Interface culture of transfected FRT cells. The note with it: FRT cells transfected with 2099.1 or 1835.1; sequential Forskolin, VX770, Inh-172. Format: cell-based, rat. How it is done:
Further studies were conducted to assess the activity of hCFTR proteins expressed by selected mRNA constructs and whether these can properly open and close to allow proper ion transport. In these studies, an Air-Liquid Interface (ALI) cell culture model of FRT cells was used to transfect an unformulated subset of codon-optimized hCFTR mRNAs at different doses ranging from 0.5 μg-2 μg of mRNA (the 2 μg dose is not shown) into the FRT cells. ALI is a method of cell culture by which polarized cells are generated with their basal surfaces in contact with media, and the top of the cellular layer is exposed to the air. This model helps to mimic the cellular structure of in vivo airways. At 24 hours post-transfection, transepithelial conductance (Gt) of the cells over time was measured as an indicator of CFTR activity. Initially, Gt was measured with the transfected or control cells unperturbed. Then, a sequential process of CFTR activation (channel opening), enhancement (gating promotion) and closing of the CFTR channels was performed. The hCFTR constructs used in this study were 1835.1 (SEQ ID NO: 53), 2093.1 (SEQ ID NO: 66), 2095.1 (SEQ ID NO: 68), 2096.1 (SEQ ID NO: 69), and 2099.1 (SEQ ID NO: 72). In addition, controls were performed using a reference sequence of construct 764.1 (SEQ ID NO: 47) and untransfected cells. […]

The values that follow come from patent US20230159449A1, “LIPID FORMULATIONS CONTAINING NUCLEIC ACIDS AND METHODS OF TREATMENT FOR CYSTIC FIBROSIS” (Arcturus Therapeutics, Inc., priority 2021, published 2023).

For the molecule `O=C(O)c1ccc(C=C2SC(=S)N(c3cccc(C(F)(F)F)c3)C2=O)cc1` [Inh-172, reference compound], the “change in Gt on introduction of the agent” value was “decline in Gt”.

On to `CC(C)(C)c1cc(C(C)(C)C)c(NC(=O)c2c[nH]c3ccccc3c2=O)cc1O` [VX770, reference compound], for which the “change in Gt on introduction of the agent” value was “second increase in Gt”.
